This assay addresses T1, IspH (LytB) (Aquifex aeolicus, UniProt O67625).
T1 sequence (O67625 1-289): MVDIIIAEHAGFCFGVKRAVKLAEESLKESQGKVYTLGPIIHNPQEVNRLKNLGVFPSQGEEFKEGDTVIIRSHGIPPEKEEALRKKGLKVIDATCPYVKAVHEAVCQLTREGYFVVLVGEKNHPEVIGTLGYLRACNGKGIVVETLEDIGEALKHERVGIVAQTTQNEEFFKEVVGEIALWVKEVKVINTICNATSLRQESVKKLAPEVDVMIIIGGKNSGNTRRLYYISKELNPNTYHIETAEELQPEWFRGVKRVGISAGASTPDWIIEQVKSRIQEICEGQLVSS
As to the kind of experiment: HYSCORE/CW-EPR with […] and […]-labeled IspH. It is filed as biochemical.

The values below come from publication PMC3092291 (2011).

As usually defined, the IC50 is the concentration that gives 50% inhibition. A low value points to greater potency in that assay. Consider BPH-293 [compound 7], for which it took 38 µM to reach half-maximal inhibition (IC50). This lies in the double-digit micromolar range.
